Values joined by “and” are separate entries in the source; they are usually repeats but may differ in a detail not shown here. Identical values can stand only once. Marks after values point to notes of the source that are not given here.
Tested on: 16 healthy males, ranging from 48 to 75 years old
Experiment: Test on 16 volunteers: KAREI-SHU aldehydes collected from worn underwears (Experiment 8)
Type: in vivo, human
Experimental: In accordance with the test on volunteer in Experiment 7, the following experiment was conducted with more volunteers, while focusing particularly on the formation inhibitory effect on KAREI-SHU by trehalose. The number of volunteers used in this experiment was 16 healthy males, ranging from 48 to 75 years old. Cotton-made half-sleeve underwears with substantially the same quality were purchased, washed with only water and dried twice in a cyclic manner for volunteers' use as underwears during the test period. As for towels and gauzes used by volunteers during the test period, those with substantially the same quality were purchased, washed with only water and dried twice in a cyclic manner for use. The initiation day of the test was expressed with day 0, and when the volunteers use body-odor-care-goods such as deodorants and bath salts daily, they were asked to suspend their use two days before the initiation of the test, i.e., day −2.
Until about 10 a.m. on day 0, each volunteer was in a usual manner asked to take a bath to sufficiently wash their bodies including hairs. After bathing, they were sequentially allowed to wipe water drops on the surface of their bodies with towels, allowed to wear the prepared underwears, and allowed to spend their daily life as usual.
At about 5 p.m. on day 1, the underwears worn by the volunteers were collected from them and, as underwears for a […], subjected to the following analysis.
Until 10 a.m. on day 1, each volunteer was allowed to take a bath similarly as done on day 0. Just after bathing, they were allowed to wipe water drops on their body surfaces with towels, and sprayed by a sprayer over upper half parts of their bodies with a 2% (w/w) aqueous trehalose solution, which had been previously prepared and provided to the volunteers, followed by extending the solution to homogeneity over the upper half parts in such a manner of tapping on the surfaces of the parts with gauzes, which had been previously soaked in a fresh preparation of the same solution as above. By repeating the steps of spraying and extending for several times before natural dryness, trehalose was applied over the surfaces of upper half parts of the volunteers. Thereafter, the volunteers were allowed to wear new underwears prepared previously and to spend their daily life as usual.
Until about 10 a.m. on day 2, each volunteer was allowed to take a bath similarly as done on day 0. Just after bathing, the volunteers were applied with trehalose over the surfaces of their upper half parts similarly as done on day 1, then allowed to wear new underwears prepared previously and spend their daily life as usual.
At about 5 p.m. on day 3, the underwears worn by the volunteers were collected from the volunteers and, as underwears for a […], subjected to the following analysis.
The underwears collected from the volunteers in the control and test systems were instantly treated by the method in Experiment 7, followed by collecting in a column volatile aldehydes as DNPH derivatives from the underwears. The DNPH derivatives collected in the column were subjected to analysis according to the method in Experiment 7. Using as standard specimens 2-nonenal, 2-octenal, and 2-hexenal, they were separately subjected to GC analysis under the same conditions as above. Based on the gas chromatograms obtained from the above analyses, the contents (μg) of 2-nonenal, 2-octenal, and 2-hexenal, collected from the underwears in the test and control systems, were respectively determined. Respective data obtained from all the volunteers are in Table 8.
As shown in the data of the control system in Table 8, 2-nonenal, 2-octenal and 2-hexenal, known as substances causative of KAREI-SHU, were particularly detected in the underwears from volunteers age over 56. […]

[1] = individual volunteers A-P (age 48-75), 2% (w/w) aqueous trehalose solution on upper half of body

OC[C@H]1O[C@H](O[C@H]2O[C@H](CO)[C@@H](O)[C@H](O)[C@H]2O)[C@H](O)[C@@H](O)[C@@H]1O [Trehalose, trehalose]
Content of 2-Hexenal collected from volunteers' underwears, mean ± standard deviation, with trehalose application (Age 54 or under (n = 8), control 0.06 ± 0.18): 0.09 ± 0.24^ μg
Content of 2-Nonenal collected from volunteers' underwears, mean ± standard deviation, with trehalose application (Age 54 or under (n = 8), control 0.19 ± 0.21): 0.19 ± 0.40^ μg
Content of 2-Octenal collected from volunteers' underwears, mean ± standard deviation, with trehalose application (Age 54 or under (n = 8), control 1.00 ± 1.00, p < 0.05 to control): 0.21 ± 0.36^a μg
Total content of 2-nonenal, 2-octenal and 2-hexenal collected from volunteers' underwears, mean ± standard deviation, with trehalose application (Age 54 or under (n = 8), control 1.26 ± 1.02, p < 0.05 to control): 0.48 ± 0.50^a μg
Content of 2-Hexenal collected from volunteers' underwears, mean ± standard deviation, with trehalose application (Age 56 or higher (n = 8), control 5.44 ± 4.39, p < 0.05 to control): 0.71 ± 1.65^a μg
Content of 2-Octenal collected from volunteers' underwears, mean ± standard deviation, with trehalose application (Age 56 or higher (n = 8), control 5.51 ± 3.71, p < 0.05 to control): 2.59 ± 1.92^a μg
Content of 2-Nonenal collected from volunteers' underwears, mean ± standard deviation, with trehalose application (Age 56 or higher (n = 8), control 6.61 ± 3.75, p < 0.05 to control): 2.11 ± 1.87^a μg
Total content of 2-nonenal, 2-octenal and 2-hexenal collected from volunteers' underwears, mean ± standard deviation, with trehalose application (Age 56 or higher (n = 8), control 17.17 ± 10.14, p < 0.01 to control): 5.40 ± 4.66^b μg
Content of volatile aldehydes collected from volunteer, 2-Hexenal, with trehalose application (test system) [1]: 0.00 μg (13×) and 0.68 μg and 0.95 μg and 4.70 μg
Content of volatile aldehydes collected from volunteer, 2-Octenal, with trehalose application (test system) [1]: 0.24 μg and 0.28 μg and 1.04 μg and 0.00 μg (5×) and 1.82 μg and 1.07 μg and 2.59 μg and 1.13 μg and 5.43 μg and 4.24 μg and 4.42 μg and 0.11 μg
Content of volatile aldehydes collected from volunteer, Nonenal, with trehalose application (test system) [1]: 0.17 μg and 0.00 μg (6×) and 0.18 μg and 1.17 μg and 1.66 μg and 1.10 μg and 1.41 μg and 0.35 μg and 2.71 μg and 4.65 μg and 4.99 μg
Content of volatile aldehydes collected from volunteer, Total of 2-nonenal, 2-octenal and 2-hexenal, with trehalose application (test system) [1]: 0.41 μg and 0.97 μg and 1.04 μg and 0.18 μg and 1.17 μg and 3.48 μg and 1.10 μg and 1.07 μg and 4.96 μg and 1.47 μg and 8.14 μg and 8.89 μg and 14.12 μg and 0.00 μg (2×) and 0.11 μg
